From the kinase profiling compilation of Christmann-Franck et al. (2016)

How the values were obtained:
[1] = system: AKT2 (human), P31751 [S474D]
AURKB (human) = AURKB (human) (UniProt Q96GD4)
BRSK1 (human) = BRSK1 (human) (UniProt Q8TDC3); conditions: compound 10.0 µM
CDK2 CCNA2 (human) = CDK2 CCNA2 (human) (UniProt P20248+P24941)
CSNK2A1 (human) = CSNK2A1 (human) (UniProt P68400)
EEF2K (human) = EEF2K (human) (UniProt O00418)
GCK (human) = GCK (human) (UniProt Q12851)
HIPK1 (human) = HIPK1 (human) (UniProt Q86Z02)
HIPK2 (human) = HIPK2 (human) (UniProt Q9H2X6)
IRAK4 (human) = IRAK4 (human) (UniProt Q9NWZ3)
MAPK11 (human) = MAPK11 (human) (UniProt Q15759)
MAPK8 (human) = MAPK8 (human) (UniProt P45983)
MAPKAPK2 (human) = MAPKAPK2 (human) (UniProt P49137)
MARK2 (human) [2] = biological target: MARK2 (human) (UniProt Q7KZI7)
MINK1 (human) = MINK1 (human) (UniProt Q8N4C8)
[3] = system: PAK2 (human), Q13177 [T402E]
PAK7 (human) = PAK7 (human) (UniProt Q9P286)
PIM3 (human) = PIM3 (human) (UniProt Q86V86)
PLK1 (human) = PLK1 (human) (UniProt P53350)
PRKCA (human) = PRKCA (human) (UniProt P17252)
[4] = system: SGK1 (human), O00141 [S422D]
STK11 (human) = STK11 (human) (UniProt Q15831)
YES1 (human) = YES1 (human) (UniProt P07947)
[5] = system: ABL1 (human), P00519 [E255K]; assay: KINOMEscan competition binding; conditions: compound 10.0 µM
[6] = system: ABL1 (human), P00519 [Y253F]; assay: KINOMEscan competition binding; conditions: compound 10.0 µM
[7] = system: EGFR (human), P00533 [746-750 del]; assay: KINOMEscan competition binding; conditions: compound 10.0 µM
[8] = system: EGFR (human), P00533 [G719C]; assay: KINOMEscan competition binding; conditions: compound 10.0 µM
[9] = system: EGFR (human), P00533 [G719S]; assay: KINOMEscan competition binding; conditions: compound 10.0 µM
[10] = system: EGFR (human), P00533 [L861Q]; assay: KINOMEscan competition binding; conditions: compound 10.0 µM
[11] = system: EGFR (human), P00533 [P753S; 747-752 del]; assay: KINOMEscan competition binding; conditions: compound 10.0 µM
[12] = system: KIT (human), P10721 [V559D/V654A]; assay: KINOMEscan competition binding; conditions: compound 10.0 µM
MARK2 (human) [13] = biological target: MARK2 (human) (UniProt Q7KZI7); assay: KINOMEscan competition binding; conditions: compound 10.0 µM
PIK3CA (human) = PIK3CA (human) (UniProt P42336); assay: KINOMEscan competition binding; conditions: compound 10.0 µM
[14] = system: PIK3CA (human), P42336 [H1047Y]; assay: KINOMEscan competition binding; conditions: compound 10.0 µM
PIK3CG (human) = PIK3CG (human) (UniProt P48736); assay: KINOMEscan competition binding; conditions: compound 10.0 µM

Chain of MARK2 (human) (Q7KZI7 whole entry, looked up): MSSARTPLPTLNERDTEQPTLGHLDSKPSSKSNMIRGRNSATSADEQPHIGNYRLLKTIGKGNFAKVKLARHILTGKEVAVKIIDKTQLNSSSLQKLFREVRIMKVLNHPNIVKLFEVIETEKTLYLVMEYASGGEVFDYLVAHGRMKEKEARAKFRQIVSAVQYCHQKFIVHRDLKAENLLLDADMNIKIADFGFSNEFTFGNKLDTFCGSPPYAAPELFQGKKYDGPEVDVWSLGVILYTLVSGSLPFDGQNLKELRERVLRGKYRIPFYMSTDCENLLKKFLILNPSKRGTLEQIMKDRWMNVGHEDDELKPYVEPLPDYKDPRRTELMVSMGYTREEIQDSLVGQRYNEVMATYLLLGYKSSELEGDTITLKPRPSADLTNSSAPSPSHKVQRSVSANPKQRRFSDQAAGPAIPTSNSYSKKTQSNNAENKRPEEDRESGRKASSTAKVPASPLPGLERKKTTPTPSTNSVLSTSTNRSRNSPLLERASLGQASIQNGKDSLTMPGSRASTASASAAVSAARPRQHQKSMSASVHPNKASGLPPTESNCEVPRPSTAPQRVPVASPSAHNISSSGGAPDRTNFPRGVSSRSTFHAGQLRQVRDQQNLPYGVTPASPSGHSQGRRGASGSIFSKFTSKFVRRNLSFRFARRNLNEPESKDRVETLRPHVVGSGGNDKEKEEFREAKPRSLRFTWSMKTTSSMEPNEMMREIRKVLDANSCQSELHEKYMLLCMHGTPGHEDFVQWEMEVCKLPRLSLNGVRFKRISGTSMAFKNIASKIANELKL
Chain of CSNK2A1 (human) (P68400 whole entry, looked up): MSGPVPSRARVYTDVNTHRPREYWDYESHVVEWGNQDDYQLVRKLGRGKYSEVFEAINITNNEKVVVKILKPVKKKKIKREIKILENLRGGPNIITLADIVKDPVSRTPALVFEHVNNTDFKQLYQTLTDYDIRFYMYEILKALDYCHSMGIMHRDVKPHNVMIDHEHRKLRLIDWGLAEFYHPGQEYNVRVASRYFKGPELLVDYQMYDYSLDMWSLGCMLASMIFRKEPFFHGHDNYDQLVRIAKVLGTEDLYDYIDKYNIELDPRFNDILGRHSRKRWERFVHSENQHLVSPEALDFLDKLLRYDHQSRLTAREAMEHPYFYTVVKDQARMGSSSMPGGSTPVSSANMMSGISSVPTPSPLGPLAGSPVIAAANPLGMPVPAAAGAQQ
Chain of PAK7 (human) (Q9P286 whole entry, looked up): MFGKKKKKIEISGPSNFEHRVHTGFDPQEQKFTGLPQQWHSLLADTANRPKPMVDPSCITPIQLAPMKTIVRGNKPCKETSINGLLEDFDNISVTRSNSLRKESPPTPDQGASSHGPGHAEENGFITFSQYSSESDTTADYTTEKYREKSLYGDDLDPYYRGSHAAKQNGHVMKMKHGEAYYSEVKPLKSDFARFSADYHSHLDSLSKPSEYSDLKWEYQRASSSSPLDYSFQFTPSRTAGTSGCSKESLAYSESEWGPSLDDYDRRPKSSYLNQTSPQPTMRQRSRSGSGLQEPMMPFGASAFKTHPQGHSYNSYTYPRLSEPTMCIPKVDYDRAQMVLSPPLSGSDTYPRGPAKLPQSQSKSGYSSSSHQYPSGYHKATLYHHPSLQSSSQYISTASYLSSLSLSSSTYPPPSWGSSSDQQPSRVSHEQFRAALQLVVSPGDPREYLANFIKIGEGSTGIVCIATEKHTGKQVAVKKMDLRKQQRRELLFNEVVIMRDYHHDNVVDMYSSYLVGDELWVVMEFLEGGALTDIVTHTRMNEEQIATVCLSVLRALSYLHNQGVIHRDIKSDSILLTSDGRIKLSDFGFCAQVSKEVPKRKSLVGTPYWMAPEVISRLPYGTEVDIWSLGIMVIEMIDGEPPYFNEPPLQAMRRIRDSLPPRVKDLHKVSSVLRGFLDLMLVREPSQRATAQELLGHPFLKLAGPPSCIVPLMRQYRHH
Chain of YES1 (human) (P07947 whole entry, looked up): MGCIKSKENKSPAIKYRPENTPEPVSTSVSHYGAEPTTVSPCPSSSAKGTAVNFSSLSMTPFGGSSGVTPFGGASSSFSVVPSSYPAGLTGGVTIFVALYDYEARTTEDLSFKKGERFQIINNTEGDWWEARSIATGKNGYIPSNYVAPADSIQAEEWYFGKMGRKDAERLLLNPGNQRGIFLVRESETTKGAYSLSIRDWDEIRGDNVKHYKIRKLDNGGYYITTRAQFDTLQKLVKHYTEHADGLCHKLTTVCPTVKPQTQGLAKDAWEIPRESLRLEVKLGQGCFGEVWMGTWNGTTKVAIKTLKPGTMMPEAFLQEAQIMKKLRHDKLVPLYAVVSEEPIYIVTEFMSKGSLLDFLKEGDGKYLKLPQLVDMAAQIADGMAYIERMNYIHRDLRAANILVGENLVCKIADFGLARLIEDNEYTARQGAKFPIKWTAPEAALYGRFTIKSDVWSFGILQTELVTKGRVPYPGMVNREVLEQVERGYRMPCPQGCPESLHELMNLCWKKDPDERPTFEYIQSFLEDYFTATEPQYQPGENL
Chain of AKT2 (human), P31751 [S474D] (P31751 whole entry S474D, looked up): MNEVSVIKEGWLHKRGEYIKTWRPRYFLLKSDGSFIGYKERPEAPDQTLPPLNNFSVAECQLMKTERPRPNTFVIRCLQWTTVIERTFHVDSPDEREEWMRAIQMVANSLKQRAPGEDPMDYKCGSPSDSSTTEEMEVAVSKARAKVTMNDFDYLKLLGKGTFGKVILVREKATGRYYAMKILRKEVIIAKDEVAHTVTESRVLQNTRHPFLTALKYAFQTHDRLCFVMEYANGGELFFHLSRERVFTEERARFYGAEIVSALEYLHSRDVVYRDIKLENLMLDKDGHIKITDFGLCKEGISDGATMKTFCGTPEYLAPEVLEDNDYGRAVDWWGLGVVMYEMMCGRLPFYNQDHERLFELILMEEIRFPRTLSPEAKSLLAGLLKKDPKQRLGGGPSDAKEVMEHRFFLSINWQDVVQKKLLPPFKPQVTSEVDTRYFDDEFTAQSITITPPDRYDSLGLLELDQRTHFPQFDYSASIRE
Chain of SGK1 (human), O00141 [S422D] (O00141 whole entry S422D, looked up): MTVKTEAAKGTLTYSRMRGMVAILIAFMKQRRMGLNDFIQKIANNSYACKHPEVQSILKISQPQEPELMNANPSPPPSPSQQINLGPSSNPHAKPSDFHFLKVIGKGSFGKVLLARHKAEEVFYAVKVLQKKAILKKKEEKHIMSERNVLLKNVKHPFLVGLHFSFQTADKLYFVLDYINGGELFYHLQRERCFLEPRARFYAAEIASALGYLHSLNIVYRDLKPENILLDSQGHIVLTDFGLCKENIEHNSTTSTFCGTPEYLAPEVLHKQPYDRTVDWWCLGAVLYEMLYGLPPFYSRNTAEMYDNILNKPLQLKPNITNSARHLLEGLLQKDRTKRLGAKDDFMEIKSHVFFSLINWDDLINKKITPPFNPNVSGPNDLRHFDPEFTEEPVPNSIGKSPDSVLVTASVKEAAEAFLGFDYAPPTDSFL
Chain of PLK1 (human) (P53350 whole entry, looked up): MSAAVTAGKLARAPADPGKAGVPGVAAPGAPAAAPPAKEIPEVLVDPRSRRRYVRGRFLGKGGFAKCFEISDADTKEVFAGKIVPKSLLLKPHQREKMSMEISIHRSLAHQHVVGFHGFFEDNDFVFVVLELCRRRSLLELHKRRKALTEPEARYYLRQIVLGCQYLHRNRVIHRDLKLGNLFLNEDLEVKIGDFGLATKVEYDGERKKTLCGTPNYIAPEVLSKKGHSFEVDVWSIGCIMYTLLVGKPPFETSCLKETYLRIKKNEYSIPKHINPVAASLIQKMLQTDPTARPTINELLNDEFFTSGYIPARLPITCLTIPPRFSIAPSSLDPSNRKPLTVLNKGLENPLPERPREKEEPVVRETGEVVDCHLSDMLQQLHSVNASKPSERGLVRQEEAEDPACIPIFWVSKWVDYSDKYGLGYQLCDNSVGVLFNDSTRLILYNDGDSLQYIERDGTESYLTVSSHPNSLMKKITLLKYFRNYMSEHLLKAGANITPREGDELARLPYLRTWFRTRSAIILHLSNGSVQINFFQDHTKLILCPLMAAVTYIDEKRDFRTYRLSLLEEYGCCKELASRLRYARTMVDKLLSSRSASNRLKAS
Chain of AURKB (human) (Q96GD4 whole entry, looked up): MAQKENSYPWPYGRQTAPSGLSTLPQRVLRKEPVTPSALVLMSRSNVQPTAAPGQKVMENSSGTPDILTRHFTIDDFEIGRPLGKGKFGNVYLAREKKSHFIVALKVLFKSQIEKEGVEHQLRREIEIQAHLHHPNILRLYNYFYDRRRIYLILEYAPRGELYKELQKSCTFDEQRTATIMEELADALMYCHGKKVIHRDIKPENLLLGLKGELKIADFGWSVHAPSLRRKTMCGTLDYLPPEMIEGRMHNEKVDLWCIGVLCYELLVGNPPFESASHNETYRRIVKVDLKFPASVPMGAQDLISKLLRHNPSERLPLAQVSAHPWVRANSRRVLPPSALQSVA
Chain of MAPK11 (human) (Q15759 whole entry, looked up): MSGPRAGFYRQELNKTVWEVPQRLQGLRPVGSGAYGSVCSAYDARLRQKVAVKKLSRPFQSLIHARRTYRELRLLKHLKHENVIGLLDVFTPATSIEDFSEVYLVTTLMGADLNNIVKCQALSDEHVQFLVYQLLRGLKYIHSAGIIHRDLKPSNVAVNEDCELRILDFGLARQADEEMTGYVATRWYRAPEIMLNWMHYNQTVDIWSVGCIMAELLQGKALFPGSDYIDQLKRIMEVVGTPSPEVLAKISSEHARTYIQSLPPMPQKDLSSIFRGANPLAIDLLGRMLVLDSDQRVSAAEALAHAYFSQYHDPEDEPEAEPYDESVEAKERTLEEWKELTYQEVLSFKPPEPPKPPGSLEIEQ

COC(=O)Nc1ccc(-c2nc(N3CCOCC3)c3cnn(C4CCN(C(=O)OC)CC4)c3n2)cc1
per cent of control ([1]; compound 1.0 µM): 102% | per cent of control ([1]; compound 10.0 µM): 89% | per cent of control (AURKB (human); compound 1.0 µM): 91% | per cent of control (AURKB (human); compound 10.0 µM): 100% | per cent of control (BRSK1 (human)): 94% | per cent of control (CDK2 CCNA2 (human); compound 1.0 µM): 111% | per cent of control (CDK2 CCNA2 (human); compound 10.0 µM): 104% | per cent of control (CSNK2A1 (human); compound 1.0 µM): 99% | per cent of control (CSNK2A1 (human); compound 10.0 µM): 92% | per cent of control (EEF2K (human); compound 1.0 µM): 97% | per cent of control (EEF2K (human); compound 10.0 µM): 106% | per cent of control (GCK (human); compound 1.0 µM): 94% | per cent of control (GCK (human); compound 10.0 µM): 105% | per cent of control (HIPK1 (human); compound 1.0 µM): 85% | per cent of control (HIPK1 (human); compound 10.0 µM): 89% | per cent of control (HIPK2 (human); compound 1.0 µM): 95% | per cent of control (HIPK2 (human); compound 10.0 µM): 94% | per cent of control (IRAK4 (human); compound 1.0 µM): 107% | per cent of control (IRAK4 (human); compound 10.0 µM): 114% | per cent of control (MAPK11 (human); compound 1.0 µM): 82% | per cent of control (MAPK11 (human); compound 10.0 µM): 81% | per cent of control (MAPK8 (human); compound 1.0 µM): 93% | per cent of control (MAPK8 (human); compound 10.0 µM): 91% | per cent of control (MAPKAPK2 (human); compound 1.0 µM): 98% | per cent of control (MAPKAPK2 (human); compound 10.0 µM): 91% | per cent of control (MARK2 (human) [2]; compound 1.0 µM): 96% | per cent of control (MARK2 (human) [2]; compound 10.0 µM): 118% | per cent of control (MINK1 (human); compound 1.0 µM): 100% | per cent of control (MINK1 (human); compound 10.0 µM): 100% | per cent of control ([3]; compound 1.0 µM): 92% | per cent of control ([3]; compound 10.0 µM): 91% | per cent of control (PAK7 (human); compound 1.0 µM): 97% | per cent of control (PAK7 (human); compound 10.0 µM): 87% | per cent of control (PIM3 (human); compound 1.0 µM): 87% | per cent of control (PIM3 (human); compound 10.0 µM): 80% | per cent of control (PLK1 (human); compound 1.0 µM): 105% | per cent of control (PLK1 (human); compound 10.0 µM): 88% | per cent of control (PRKCA (human); compound 1.0 µM): 81% | per cent of control (PRKCA (human); compound 10.0 µM): 75% | per cent of control ([4]; compound 1.0 µM): 85% | per cent of control ([4]; compound 10.0 µM): 77% | per cent of control (STK11 (human); compound 1.0 µM): 102% | per cent of control (STK11 (human); compound 10.0 µM): 112% | per cent of control (YES1 (human); compound 1.0 µM): 109% | per cent of control (YES1 (human); compound 10.0 µM): 113% | kinase still bound, per cent of control [5]: 100% | kinase still bound, per cent of control [6]: 90% | kinase still bound, per cent of control [7]: 100% | kinase still bound, per cent of control [8]: 100% | kinase still bound, per cent of control [9]: 95% | kinase still bound, per cent of control [10]: 100% | kinase still bound, per cent of control [11]: 86% | kinase still bound, per cent of control [12]: 100% | kinase still bound, per cent of control (MARK2 (human) [13]): 100% | kinase still bound, per cent of control (PIK3CA (human)): 5.4% | kinase still bound, per cent of control [14]: 7.8% | kinase still bound, per cent of control (PIK3CG (human)): 78%
